The source of these data is patent US5491220A, “Surface loop structural analogues of fibroblast growth factors” (Yeda Research and Development Co., Ltd., priority 1994, dated 1996).

For this assay, the system named is neovascularization. In words: In vivo angiogenesis, rabbit ear chamber model. The protocol: In an in vivo model of angiogenesis, FGF-2LI is evaluated using the rabbit ear chamber system modified and improved by Howden, G. F., and Silver, I. A., (Int. Endodontic J. 13: 3-16 (1980)), observing the growth factor-induced neovascularization, or its inhibition, by modified growth factors or other reagents.
Rabbits are sedated using 50-70 mg/kg ketamine and 10 mg/kg xylozine administered intramuscularly. The ears are shaved with an electric hair clipper and cleaned with water, followed by Betadine®. To minimize the risk of infection, the rabbits are given 20,000 units/kg benzathine penicillin intramuscularly prior to insertion of the ear chambers. The chamber is inserted into an approximately 0.75 cm area which is not crossed by any major vessels. During the course of the experiments, observations or any minor handling of ear chambers of the animals is done by sedating the animal using the intramuscular administration of a combination of Butorphanol® and acepromazine at levels of 1 mg/kg each. FGF-2 or FGF-2LI bound to heparin-Sepharose® beads in a controlled-release alginate capsule is contained in one of the ear chambers and the other is used as a control containing only the heparin-Sepharose® alginate capsule vehicle. Thus, the effect of the growth factors and the controlled-release capsule alone can be observed simultaneously in the same animal. […] The animals are kept for 4 to 6 weeks and neovascularization is observed visually and recorded photographically at weekly intervals.
The criteria for evaluation of the degree of neovascularization using this procedure is set out below.

“FGF-2LI: human FGF-2 with loop residues 118-122 replaced by Ala-Gln-Phe-Pro-Asn from human interleukin-1β (SEQ ID NO 15)”: for the setting “400 ng/chamber”, the “Angiogenesis at 400 ng/chamber” value is “greatly stimulates formation of capillaries and larger vessels”. In addition, the “Concentration range over which stimulatory activity is observed” value (rabbit ear chamber) is given as 0.1-400 ng/chamber. Besides, under “rabbit ear chamber, controlled-release alginate capsule”, the “Potential to induce angiogenesis (neovascularization)” value was “superior to FGF-2”. Also, for the setting “rabbit ear chamber, versus control chambers”, the “Vessel formation in the chamber” value was “stimulate large vessel formation”.
